Measurements taken from ChEMBL document CHEMBL5661967, “Antitumor activity of HKI-272, an orally active, irreversible inhibitor of the HER-2 tyrosine kinase” (Cancer Res, 2004).
pIC50: −log10 of the molar value. Activity calls are given as the source filed them. The calls are words filed in the database; no cut-off is given here.

How the values were obtained:
MDA-MB-361 = assay: Antiproliferative activity against human MDA-MB-361 cells measured after 2 days by sulforhodamine B assay; type: functional, cell-based; conditions: MDA-MB-361, 48 h
BT-474 [1] = assay: Antiproliferative activity against human BT-474 cells measured after 6 days by sulforhodamine B assay; type: functional, cell-based; conditions: BT-474, 144 h
MX1 = assay: Antitumor activity against human MX1 cells xenografted in athymic nude mouse assessed as tumor growth inhibition; type: functional, cell-based
BT-474 [2] = assay: Antitumor activity against human BT-474 cells xenografted in athymic nude mouse assessed as tumor growth inhibition at 40 mg/kg, po administered daily for 20 days via gavage and measured on day 28 relative to control; type: functional; conditions: BT-474, 672 h, time 28 day, read-out: TGI
NIH3T3 [3] = assay: Antitumor activity against mouse 3T3 cells transfected with HER-2 oncogene implanted in athymic nude mouse assessed as tumor growth inhibition at 10 mg/kg, po administered daily for 10 days via gavage and measured on day 14 relative to control; type: functional; conditions: NIH3T3, 336 h, time 14 day, read-out: TGI
MCF7 = assay: Antitumor activity against human MCF7 cells xenografted in athymic nude mouse assessed as tumor growth inhibition up to 80 mg/kg, po administered daily for 20 days via gavage and measured on day 28 relative to control; type: functional; conditions: time 28 day
[4] = target: Proto-oncogene tyrosine-protein kinase Src (Homo sapiens, UniProt P12931); assay: Inhibition of recombinant Src (unknown origin) using peptide as substrate
Homo sapiens [5] = species: Homo sapiens; assay: Selectivity ratio of IC50 for recombinant Src (unknown origin) to IC50 for recombinant N-terminal His6-tagged HER2 cytoplasmic domain (676 to 1255 residues)(unknown origin) expressed in baculovirus infected Sf9 insect cells
BT-474 [6] = assay: Cell cycle arrest in human BT-474 cells assessed as accumulation of cells at Sub-G1 phase at 0.2 nM measured after 12 to 16 hrs by propidium iodide staining based flow cytometry (reference value: 8%); type: functional; conditions: time 12-16 hrs
A-431 [7] = assay: Antiproliferative activity against human A-431 cells measured after 2 days by sulforhodamine B assay; type: functional, cell-based; conditions: A-431, 48 h
MDA-MB-435 = assay: Antiproliferative activity against human MDA-MB-435 cells measured after 2 days by sulforhodamine B assay; type: functional, cell-based; conditions: MDA-MB-435, 48 h
BT-474 [8] = assay: Antitumor activity against human BT-474 cells xenografted in athymic nude mouse assessed as tumor growth inhibition at 10 mg/kg, po administered daily for 20 days via gavage and measured on day 28 relative to control; type: functional; conditions: BT-474, 672 h, time 28 day, read-out: TGI
[9] = target: Mitogen-activated protein kinase kinase kinase 8 (Homo sapiens, UniProt P41279); assay: Inhibition of recombinant Tpl-2 (unknown origin) using peptide as substrate
[10] = target: RAF proto-oncogene serine/threonine-protein kinase (Homo sapiens, UniProt P04049); assay: Inhibition of recombinant c-Raf (unknown origin) using protein as substrate
[11] = Cytotoxicity against mouse 3T3 cells assessed as inhibition of cell proliferation measured after 2 days by sulforhodamine B assay; type: toxicity, cell-based; conditions: NIH3T3 (3T3) cells
BT-474 [12] = assay: Cell cycle arrest in human BT-474 cells assessed as accumulation of cells at S phase at 1 nM measured after 12 to 16 hrs by propidium iodide staining based flow cytometry (reference value: 21%); type: functional; conditions: time 12-16 hrs
SK-BR-3 = assay: Antiproliferative activity against human SK-BR-3 cells measured after 2 days by sulforhodamine B assay; type: functional, cell-based; conditions: SK-BR-3, 48 h
[13] = In vivo inhibition of HER2 autophosphorylation in human BT-474 cells xenografted athymic nude mouse at 40 mg/kg, po administered as single dose via gavage measured after 6 hrs by immunoblot analysis relative to control; type: functional
BT-474 [14] = assay: Cell cycle arrest in human BT-474 cells assessed as accumulation of cells at G0-G1 phase at 1 nM measured after 12 to 16 hrs by propidium iodide staining based flow cytometry (reference value: 61%); type: functional; conditions: time 12-16 hrs
BT-474 [15] = assay: Cell cycle arrest in human BT-474 cells assessed as accumulation of cells at G0-G1 phase at 2 nM measured after 12 to 16 hrs by propidium iodide staining based flow cytometry (reference value: 61%); type: functional; conditions: time 12-16 hrs
BT-474 [16] = assay: Cell cycle arrest in human BT-474 cells assessed as increase in accumulation of cells at sub-G1 phase at >2 nM measured after 12 to 16 hrs by propidium iodide staining based flow cytometry; type: functional; conditions: time 12-16 hrs
NIH3T3 [17] = assay: Antitumor activity against mouse 3T3 cells transfected with HER-2 oncogene implanted in athymic nude mouse assessed as tumor growth inhibition at 20 mg/kg, po administered daily for 10 days via gavage and measured on day 21 relative to control; type: functional; conditions: NIH3T3, 504 h, time 21 day, read-out: TGI
A-431 [18] = assay: Antitumor activity against human A-431 cells xenografted in athymic nude mouse assessed as tumor growth inhibition at 60 mg/kg, po administered daily for 10 days via gavage and measured on day 15 relative to control; type: functional; conditions: A-431, 360 h, time 15 day, read-out: TGI
[19] = target: Receptor tyrosine-protein kinase erbB-2 (Homo sapiens, UniProt P04626); assay: Inhibition of [14C]HKI-272 binding to HER2 in human BT-474 cells at 5 uM measured after 15 mins by fluorography; type: cell-based
BT-474 [20] = assay: Cell cycle arrest in human BT-474 cells assessed as up regulation of p27 expression at 1 to 10 nM incubated for 12 to 16 hrs by Western blot analysis; type: functional, cell-based; conditions: dose 1-10 nM, time 12-16 hrs
BT-474 [21] = assay: Cell cycle arrest in human BT-474 cells assessed as accumulation of cells at Sub-G1 phase at 2 nM measured after 12 to 16 hrs by propidium iodide staining based flow cytometry (reference value: 8%); type: functional; conditions: time 12-16 hrs
Homo sapiens [22] = species: Homo sapiens; assay: Selectivity ratio of IC50 for recombinant KDR (unknown origin) to IC50 for recombinant N-terminal His6-tagged HER2 cytoplasmic domain (676 to 1255 residues)(unknown origin) expressed in baculovirus infected Sf9 insect cells
A-431 [23] = assay: Antitumor activity against human A-431 cells xenografted in athymic nude mouse assessed as tumor growth inhibition at 20 mg/kg, po administered daily for 10 days via gavage and measured on day 15 relative to control; type: functional; conditions: A-431, 360 h, time 15 day, read-out: TGI
[24] = Toxicity in human BT-474 cells xenografted athymic nude mouse assessed as body weight loss at 10 to 40 mg/kg, po administered daily via gavage for 20 days; type: organism-based; conditions: in vivo, 480 h, dose 10-40 mg/kg, time 20 day
[25] = target: Cyclin-dependent kinase 1/cyclin B1 (Homo sapiens, UniProt P06493); assay: Inhibition of recombinant CDK1/cyclin B1 (unknown origin) using protein as substrate; type: protein-complex assay
SK-OV-3 = assay: Antitumor activity against human SK-OV-3 cells xenografted in po dosed athymic nude mouse assessed as tumor growth inhibition administered daily for 20 days via gavage and measured on day 21; type: functional, organism-based; conditions: dose 10-60 mg/kg, time 21.0 day
[26] = target: Inhibitor of nuclear factor kappa-B kinase subunit beta (Homo sapiens, UniProt O14920); assay: Inhibition of recombinant IKK-2 (unknown origin) using peptide as substrate
[27] = target: MAP kinase-activated protein kinase 2 (Homo sapiens, UniProt P49137); assay: Inhibition of recombinant MK2 (unknown origin) using peptide as substrate
Sequence of MAP kinase-activated protein kinase 2 (P49137 whole entry): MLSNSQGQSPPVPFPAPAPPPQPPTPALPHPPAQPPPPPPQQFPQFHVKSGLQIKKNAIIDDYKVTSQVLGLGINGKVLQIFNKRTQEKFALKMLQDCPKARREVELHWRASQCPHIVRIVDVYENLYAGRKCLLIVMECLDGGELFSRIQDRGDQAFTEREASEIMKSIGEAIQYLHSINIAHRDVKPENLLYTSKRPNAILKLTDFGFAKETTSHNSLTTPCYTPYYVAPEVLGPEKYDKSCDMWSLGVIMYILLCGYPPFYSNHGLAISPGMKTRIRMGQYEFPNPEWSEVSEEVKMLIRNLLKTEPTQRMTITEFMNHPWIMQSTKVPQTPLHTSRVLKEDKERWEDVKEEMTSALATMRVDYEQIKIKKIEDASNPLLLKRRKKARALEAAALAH

Sequence of Proto-oncogene tyrosine-protein kinase Src (P12931 2-536 limits assumed): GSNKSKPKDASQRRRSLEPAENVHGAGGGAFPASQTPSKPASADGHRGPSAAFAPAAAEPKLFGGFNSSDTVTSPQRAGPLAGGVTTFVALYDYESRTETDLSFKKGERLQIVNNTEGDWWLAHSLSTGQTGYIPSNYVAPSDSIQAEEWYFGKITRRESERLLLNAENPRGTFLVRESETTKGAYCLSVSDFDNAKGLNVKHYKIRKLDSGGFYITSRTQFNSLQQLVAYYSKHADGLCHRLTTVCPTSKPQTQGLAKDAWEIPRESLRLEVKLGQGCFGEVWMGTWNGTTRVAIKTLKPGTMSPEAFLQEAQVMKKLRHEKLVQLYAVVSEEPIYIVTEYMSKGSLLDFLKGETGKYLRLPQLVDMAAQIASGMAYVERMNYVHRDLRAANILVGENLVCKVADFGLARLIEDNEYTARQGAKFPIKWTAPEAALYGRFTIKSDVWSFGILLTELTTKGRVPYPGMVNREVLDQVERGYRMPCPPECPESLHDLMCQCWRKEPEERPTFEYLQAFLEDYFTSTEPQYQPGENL
Sequence of Mitogen-activated protein kinase kinase kinase 8 (P41279 whole entry): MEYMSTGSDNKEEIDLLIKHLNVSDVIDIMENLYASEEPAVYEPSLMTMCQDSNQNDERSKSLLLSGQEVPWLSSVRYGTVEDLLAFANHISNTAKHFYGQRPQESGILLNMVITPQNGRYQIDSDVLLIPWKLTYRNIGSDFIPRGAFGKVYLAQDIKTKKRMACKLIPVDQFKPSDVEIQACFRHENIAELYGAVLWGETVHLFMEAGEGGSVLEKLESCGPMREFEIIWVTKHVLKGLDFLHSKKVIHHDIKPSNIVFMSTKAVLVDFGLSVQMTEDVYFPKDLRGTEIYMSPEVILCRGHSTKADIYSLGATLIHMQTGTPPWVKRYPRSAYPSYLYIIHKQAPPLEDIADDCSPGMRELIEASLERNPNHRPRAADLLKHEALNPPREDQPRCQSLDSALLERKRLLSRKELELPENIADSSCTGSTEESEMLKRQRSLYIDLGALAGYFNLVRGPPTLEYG
Sequence of RAF proto-oncogene serine/threonine-protein kinase (P04049 whole entry): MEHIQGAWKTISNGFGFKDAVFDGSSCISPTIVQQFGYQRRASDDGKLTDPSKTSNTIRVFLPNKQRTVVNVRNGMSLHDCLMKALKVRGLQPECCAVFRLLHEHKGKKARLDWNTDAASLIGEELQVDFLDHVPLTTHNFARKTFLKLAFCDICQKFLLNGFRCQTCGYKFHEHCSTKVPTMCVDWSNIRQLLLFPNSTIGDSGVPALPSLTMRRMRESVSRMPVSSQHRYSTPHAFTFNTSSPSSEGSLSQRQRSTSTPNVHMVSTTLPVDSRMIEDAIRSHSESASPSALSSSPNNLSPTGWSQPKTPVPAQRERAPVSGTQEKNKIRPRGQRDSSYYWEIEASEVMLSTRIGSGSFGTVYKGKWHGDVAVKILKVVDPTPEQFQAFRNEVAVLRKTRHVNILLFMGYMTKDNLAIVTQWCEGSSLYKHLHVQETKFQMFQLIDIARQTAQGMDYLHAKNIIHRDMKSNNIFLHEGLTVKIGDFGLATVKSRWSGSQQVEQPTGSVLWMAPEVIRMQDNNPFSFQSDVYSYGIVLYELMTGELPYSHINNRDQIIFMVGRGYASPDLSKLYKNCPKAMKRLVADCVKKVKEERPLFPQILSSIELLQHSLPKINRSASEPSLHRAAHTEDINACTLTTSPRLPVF
Sequence of Receptor tyrosine-protein kinase erbB-2 (P04626 whole entry): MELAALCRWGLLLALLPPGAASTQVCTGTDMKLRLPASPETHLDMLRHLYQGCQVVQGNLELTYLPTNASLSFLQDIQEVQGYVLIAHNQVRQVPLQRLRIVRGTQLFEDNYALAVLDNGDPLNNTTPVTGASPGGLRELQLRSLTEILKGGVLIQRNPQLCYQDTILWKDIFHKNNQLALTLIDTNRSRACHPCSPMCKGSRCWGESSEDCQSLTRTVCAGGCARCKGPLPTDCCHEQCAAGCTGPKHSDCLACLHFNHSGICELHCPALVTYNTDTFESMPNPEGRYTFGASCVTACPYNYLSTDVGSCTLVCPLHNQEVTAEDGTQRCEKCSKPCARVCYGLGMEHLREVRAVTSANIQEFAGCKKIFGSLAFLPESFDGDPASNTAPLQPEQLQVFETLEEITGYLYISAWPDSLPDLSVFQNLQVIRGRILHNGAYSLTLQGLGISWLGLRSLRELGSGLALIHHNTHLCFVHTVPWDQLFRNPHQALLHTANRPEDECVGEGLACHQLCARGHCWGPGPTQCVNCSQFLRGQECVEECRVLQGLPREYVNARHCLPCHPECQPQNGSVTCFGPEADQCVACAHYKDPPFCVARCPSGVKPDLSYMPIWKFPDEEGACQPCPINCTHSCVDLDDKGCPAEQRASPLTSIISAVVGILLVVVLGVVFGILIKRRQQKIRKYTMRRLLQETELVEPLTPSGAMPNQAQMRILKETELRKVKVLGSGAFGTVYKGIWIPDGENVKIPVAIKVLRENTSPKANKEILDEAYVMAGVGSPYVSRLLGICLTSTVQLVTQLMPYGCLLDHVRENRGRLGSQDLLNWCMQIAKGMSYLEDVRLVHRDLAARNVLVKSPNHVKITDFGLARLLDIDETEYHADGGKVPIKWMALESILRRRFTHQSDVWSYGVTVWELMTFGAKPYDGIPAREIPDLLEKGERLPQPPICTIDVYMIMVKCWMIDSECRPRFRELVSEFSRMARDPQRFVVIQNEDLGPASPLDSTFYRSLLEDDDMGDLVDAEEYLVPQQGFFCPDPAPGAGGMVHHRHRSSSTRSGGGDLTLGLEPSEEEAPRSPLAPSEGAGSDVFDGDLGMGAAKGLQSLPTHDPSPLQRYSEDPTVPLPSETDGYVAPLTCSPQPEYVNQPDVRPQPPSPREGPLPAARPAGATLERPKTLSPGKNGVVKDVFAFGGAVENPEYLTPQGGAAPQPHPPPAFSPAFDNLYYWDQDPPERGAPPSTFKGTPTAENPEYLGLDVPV
Sequence of Cyclin-dependent kinase 1/cyclin B1 (P06493 whole entry): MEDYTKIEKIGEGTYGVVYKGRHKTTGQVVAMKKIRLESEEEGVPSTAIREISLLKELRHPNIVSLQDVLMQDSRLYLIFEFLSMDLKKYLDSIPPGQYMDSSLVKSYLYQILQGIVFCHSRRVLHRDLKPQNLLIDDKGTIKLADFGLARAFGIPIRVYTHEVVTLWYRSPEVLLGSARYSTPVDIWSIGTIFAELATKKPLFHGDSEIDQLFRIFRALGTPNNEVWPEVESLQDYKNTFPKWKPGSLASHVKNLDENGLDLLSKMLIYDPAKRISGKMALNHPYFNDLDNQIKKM
Sequence of Cyclin-dependent kinase 1/cyclin B1 (P14635 whole entry, further chain): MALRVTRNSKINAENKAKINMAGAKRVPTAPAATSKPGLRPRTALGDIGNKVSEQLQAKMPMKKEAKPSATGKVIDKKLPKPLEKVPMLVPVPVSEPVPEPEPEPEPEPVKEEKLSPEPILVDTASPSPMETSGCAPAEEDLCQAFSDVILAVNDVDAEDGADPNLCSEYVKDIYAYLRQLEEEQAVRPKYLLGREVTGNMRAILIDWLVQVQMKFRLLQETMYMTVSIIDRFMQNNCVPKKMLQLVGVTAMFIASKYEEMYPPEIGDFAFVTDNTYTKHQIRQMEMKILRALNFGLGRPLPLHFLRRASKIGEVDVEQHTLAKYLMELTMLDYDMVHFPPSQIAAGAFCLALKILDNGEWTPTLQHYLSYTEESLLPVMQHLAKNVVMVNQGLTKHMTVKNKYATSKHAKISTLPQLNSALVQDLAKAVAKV
Sequence of Inhibitor of nuclear factor kappa-B kinase subunit beta (O14920 whole entry): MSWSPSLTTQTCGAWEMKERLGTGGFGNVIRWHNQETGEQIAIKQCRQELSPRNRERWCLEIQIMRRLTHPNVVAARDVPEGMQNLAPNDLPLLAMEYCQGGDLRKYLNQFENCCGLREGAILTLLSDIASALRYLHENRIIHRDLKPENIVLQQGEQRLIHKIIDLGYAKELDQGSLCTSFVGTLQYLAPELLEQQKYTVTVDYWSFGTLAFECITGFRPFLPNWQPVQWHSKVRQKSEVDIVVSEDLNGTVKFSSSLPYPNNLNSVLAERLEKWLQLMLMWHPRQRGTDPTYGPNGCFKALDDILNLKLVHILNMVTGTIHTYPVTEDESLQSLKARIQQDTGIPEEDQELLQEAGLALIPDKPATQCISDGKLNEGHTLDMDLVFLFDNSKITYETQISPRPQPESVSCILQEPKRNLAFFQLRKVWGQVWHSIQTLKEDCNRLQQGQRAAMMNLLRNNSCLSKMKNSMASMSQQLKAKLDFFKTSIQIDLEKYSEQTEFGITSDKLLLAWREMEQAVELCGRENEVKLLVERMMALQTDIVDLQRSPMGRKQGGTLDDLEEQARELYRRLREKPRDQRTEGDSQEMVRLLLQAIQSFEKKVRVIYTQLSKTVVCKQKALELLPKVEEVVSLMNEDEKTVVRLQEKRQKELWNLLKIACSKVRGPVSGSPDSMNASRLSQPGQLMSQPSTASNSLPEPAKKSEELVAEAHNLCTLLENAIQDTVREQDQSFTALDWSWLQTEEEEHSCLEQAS

pIC50 (MDA-MB-361): 6.72 | pIC50 (BT-474 [1]): 8.70 | pIC50 [4]: 5.85 | pIC50 (A-431 [7]): 7.09 | pIC50 (MDA-MB-435): 6.02 | pIC50 [9]: < 4.74 | pIC50 [10]: < 4.74 | pIC50 (SK-BR-3): 8.70 | inhibition [19]: Active | pIC50 [25]: < 4.74 | pIC50 [26]: < 5.05 | pIC50 [27]: < 4.35
Structure (SMILES): COc1cc2ncc(C#N)c(Nc3ccc(OCc4ccccn4)c(Cl)c3)c2cc1NC(=O)/C=C/CN(C)C
TGI (MX1): inactive | inhibition in vivo at 40 mg/kg (BT-474 [2]): 93% | inhibition in vivo at 10 mg/kg (NIH3T3 [3]): 34% | TGI (MCF7): 28% | Ratio IC50 (Homo sapiens [5]): 24 | Activity (BT-474 [6]): 9% | inhibition in vivo at 10 mg/kg (BT-474 [8]): 67% | IC50 at 2 days [11]: 700 nM | Activity (BT-474 [12]): 10% | inhibition in vivo at 40 mg/kg [13]: 97% | Activity (BT-474 [14]): 69% | Activity (BT-474 [15]): 66% | Activity (BT-474 [16]): Active | inhibition in vivo at 20 mg/kg (NIH3T3 [17]): 53% | inhibition in vivo at 60 mg/kg (A-431 [18]): 76% | Activity (BT-474 [20]): Active | Activity (BT-474 [21]): 11% | Ratio IC50 (Homo sapiens [22]): 14 | inhibition in vivo at 20 mg/kg (A-431 [23]): 44% | Activity [24]: Non-Toxic | TGI (SK-OV-3): Dose-Dependent Effect
